Reference: patent US20210275443A1, “SUSTAINED-RELEASE INJECTION PREPARATION CONTAINING DONEPEZIL DERIVATIVE” (NANJING NORATECH PHARMACEUTICAL CO., LTD., priority 2018, published 2021)

Details: after i.m. administration of the suspension
Protocol: There were 3 animals in each group. […] The whole blood was centrifuged to collect plasma, which was transferred to a 96-well plate, and stored at −20° C. for detection by LC-MS/MS. The drug concentration at each sampling time was determined by measuring the standard curve of reference donepezil in plasma.

SMILES: CCCCCCC(=O)OC1=C(CC2CCN(Cc3ccccc3)CC2)Cc2cc(OC)c(OC)cc21 [donepezil heptanoate, Donepezil Heptanoate]
- Metabolism of the prodrug into donepezil after administration: rapidly metabolized into donepezil
